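Cells were grown in 96-well plates and exposed to each compound for 48 hours at five concentrations; endpoints were interpolated linearly between bracketing concentrations, or set to the highest concentration if not reached. GI50: concentration for 50% inhibition of growth.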 The source made the active and inactive calls. No stated cut-off is given here; in the data, active = GI50 up to about 1.1 µM and inactive = higher. *1 amine or outer side, *2 acyl side, *3 side chain or, on linkers, in order; H or OH if unused. Where a SMILES comes first, the peptide text is derived from it. Bridges are numbered along the chain shown (N, C = ends). [ ]: non-standard residue; d: D form. ξ: configuration not given here. X10 = CCC(C)C(N[*:1])C(O)CC(=O)O[C@H](C(=O)C(C)C(=O)[*:2])C(C)C; NMeY = CN[C@@H](Cc1ccc(O)cc1)C(=O)O; ξNMeL = CNC(CC(C)C)C(=O)O; ξT = CC(O)C(N)C(=O)O
Assays:
Experiment in all cases: NCI tumour cell line growth inhibition, 48 h
SF-268 = tested on: SF-268
OVCAR-5 = tested on: OVCAR-5
SNB-19 = tested on: SNB-19
CCRF-CEM = tested on: CCRF-CEM
SNB-75 = tested on: SNB-75
HL-60 = tested on: HL-60
K562 = tested on: K562
EKVX = tested on: EKVX
A498 = tested on: A498
A549 = tested on: A549
IGROV-1 = tested on: IGROV-1
DMS-114 = tested on: DMS-114
NCI-H23 = tested on: NCI-H23
HOP-92 = tested on: HOP-92
Malme-3M = tested on: Malme-3M
Hs-578T = tested on: Hs-578T
DU-145 = tested on: DU-145
MDA-MB-231 = tested on: MDA-MB-231
NCI/ADR-RES = tested on: NCI/ADR-RES
MDA-N = tested on: MDA-N

| Compound | GI50 (SF-268) | GI50 (OVCAR-5) | GI50 (SNB-19) | GI50 (CCRF-CEM) | GI50 (SNB-75) | GI50 (HL-60) | GI50 (K562) | GI50 (EKVX) | GI50 (A498) | GI50 (A549) | GI50 (IGROV-1) | GI50 (DMS-114) | GI50 (NCI-H23) | GI50 (HOP-92) | GI50 (Malme-3M) | GI50 (Hs-578T) | GI50 (DU-145) | GI50 (MDA-MB-231) | GI50 (NCI/ADR-RES) | GI50 (MDA-N) |
| --- | --- | --- | --- | --- | --- | --- | --- | --- | --- | --- | --- | --- | --- | --- | --- | --- | --- | --- | --- | --- |
| CC(=O)C(C(=O)C(=O)Nc1cc(Cl)c(Cl)cc1Cl)c1csc(N)n1 (stereo not given) | > 100 µM (inactive) | > 100 µM (inactive) | > 100 µM (inactive) | > 100 µM (inactive) | > 100 µM (inactive) | > 100 µM (inactive) | > 100 µM (inactive) | > 100 µM (inactive) | > 100 µM (inactive) | > 100 µM (inactive) | > 100 µM (inactive) | > 100 µM (inactive) | > 100 µM (inactive) | > 100 µM (inactive) | – | – | – | – | – | – |
| CC(=O)OC1(C#N)CC2OC1C1C2N1C(=O)c1ccccc1 (stereo not given) | > 100 µM (inactive) | > 100 µM (inactive) | > 100 µM (inactive) | > 100 µM (inactive) | > 100 µM (inactive) | > 100 µM (inactive) | > 100 µM (inactive) | > 100 µM (inactive) | > 100 µM (inactive) | > 100 µM (inactive) | > 100 µM (inactive) | > 100 µM (inactive) | > 100 µM (inactive) | > 100 µM (inactive) | > 100 µM (inactive) | – | – | – | – | – |
| CCCOC(=O)C1C(c2ccc(OC)cc2)NC(c2ccc(OC)cc2)C(C(=O)OCCC)S1(=O)=O (stereo not given) | > 10 µM (inactive) | > 10 µM (inactive) | > 10 µM (inactive) | > 10 µM (inactive) | > 10 µM (inactive) | > 100 µM (inactive) | > 10 µM (inactive) | > 10 µM (inactive) | 85.3 µM (inactive) | > 10 µM (inactive) | > 10 µM (inactive) | > 10 µM (inactive) | > 10 µM (inactive) | > 10 µM (inactive) | > 10 µM (inactive) | – | – | – | – | – |
| O=c1nc2occc2cn1C1CC(O)C(CO)O1 (stereo not given) | > 100 µM (inactive) | > 100 µM (inactive) | > 100 µM (inactive) | > 100 µM (inactive) | > 100 µM (inactive) | > 100 µM (inactive) | > 100 µM (inactive) | > 100 µM (inactive) | > 100 µM (inactive) | > 100 µM (inactive) | > 100 µM (inactive) | > 100 µM (inactive) | > 100 µM (inactive) | > 100 µM (inactive) | > 100 µM (inactive) | – | – | – | – | – |
| CCCCN[C@H]1C2C3CC4C5CC(C42)C1(C)C53 (stereo not given in full) | > 100 µM (inactive) | > 100 µM (inactive) | > 100 µM (inactive) | > 100 µM (inactive) | > 100 µM (inactive) | > 100 µM (inactive) | > 100 µM (inactive) | > 100 µM (inactive) | > 100 µM (inactive) | > 100 µM (inactive) | > 100 µM (inactive) | > 100 µM (inactive) | – | > 100 µM (inactive) | > 100 µM (inactive) | – | – | – | – | – |
| Cc1cc(NCCCCCCCNc2cc(C)nc3cc(N)ccc23)c2ccc(N)cc2n1 | 60.3 µM (inactive) | > 100 µM (inactive) | 47.2 µM (inactive) | 15.6 µM (inactive) | 25.2 µM (inactive) | 3.1 µM (inactive) | 1.37 µM (inactive) | 55.6 µM (inactive) | 43.2 µM (inactive) | 29.9 µM (inactive) | – | 1.57 µM (inactive) | 30.8 µM (inactive) | – | 36 µM (inactive) | – | – | – | – | – |
| CCCCCCCCCCCC[N+](CCCCCCCCCCCC)=C1SCCS1 | 8.04 µM (inactive) | 12.2 µM (inactive) | – | – | 16 µM (inactive) | 0.163 µM (active) | – | 13.1 µM (inactive) | 15.7 µM (inactive) | 4.78 µM (inactive) | 10.5 µM (inactive) | 1.7 µM (inactive) | 2.04 µM (inactive) | 10.8 µM (inactive) | 6.64 µM (inactive) | – | – | – | – | – |
| CCOC(=O)C(NC(=O)Nc1ccccc1)(Nc1cccc(Cl)c1)C(F)(F)F (stereo not given) | > 100 µM (inactive) | > 100 µM (inactive) | > 100 µM (inactive) | 45.1 µM (inactive) | 46.7 µM (inactive) | 42 µM (inactive) | > 100 µM (inactive) | > 100 µM (inactive) | > 66.4 µM (inactive) | > 100 µM (inactive) | > 100 µM (inactive) | – | > 100 µM (inactive) | 39.8 µM (inactive) | > 100 µM (inactive) | 24.3 µM (inactive) | > 100 µM (inactive) | > 100 µM (inactive) | > 100 µM (inactive) | > 100 µM (inactive) |
| NC(=S)N1N=C2c3ccccc3CC[C@H]2[C@@H]1c1ccc(Cl)cc1 | 32.5 µM (inactive) | 47.6 µM (inactive) | 47.4 µM (inactive) | 41.3 µM (inactive) | – | 17.6 µM (inactive) | 19.5 µM (inactive) | 37.8 µM (inactive) | 35.5 µM (inactive) | 30 µM (inactive) | 19.4 µM (inactive) | 23.9 µM (inactive) | 24.4 µM (inactive) | 22.3 µM (inactive) | 19.4 µM (inactive) | – | – | – | – | – |
| CC(=O)/C=C1/c2ccccc2N(C(C)=O)C1O (stereo not given) | – | – | > 100 µM (inactive) | > 100 µM (inactive) | > 100 µM (inactive) | > 100 µM (inactive) | > 100 µM (inactive) | > 100 µM (inactive) | > 100 µM (inactive) | > 100 µM (inactive) | > 100 µM (inactive) | > 100 µM (inactive) | > 100 µM (inactive) | > 100 µM (inactive) | – | – | – | – | – | – |
| Cc1cc(C)c(N)c(C)c1N | > 100 µM (inactive) | > 100 µM (inactive) | > 100 µM (inactive) | > 100 µM (inactive) | – | > 100 µM (inactive) | > 100 µM (inactive) | > 100 µM (inactive) | > 100 µM (inactive) | > 100 µM (inactive) | > 100 µM (inactive) | > 100 µM (inactive) | > 100 µM (inactive) | > 100 µM (inactive) | > 100 µM (inactive) | – | – | – | – | – |
| COc1ccc(CCN2CCC(C#N)(c3ccc(OC)c(OC)c3)CC2)cc1OC | > 100 µM (inactive) | > 100 µM (inactive) | > 100 µM (inactive) | > 100 µM (inactive) | 30.5 µM (inactive) | > 100 µM (inactive) | > 100 µM (inactive) | > 100 µM (inactive) | – | > 100 µM (inactive) | > 100 µM (inactive) | 60.4 µM (inactive) | > 100 µM (inactive) | 13.5 µM (inactive) | > 100 µM (inactive) | – | – | – | – | – |
| C=CCN(N=O)C(=O)NCCCCC(NC(C)=O)C(=O)NCc1ccccc1 (stereo not given) | > 100 µM (inactive) | > 100 µM (inactive) | > 100 µM (inactive) | > 100 µM (inactive) | > 100 µM (inactive) | > 100 µM (inactive) | > 100 µM (inactive) | > 100 µM (inactive) | > 100 µM (inactive) | > 100 µM (inactive) | > 100 µM (inactive) | > 100 µM (inactive) | > 100 µM (inactive) | > 100 µM (inactive) | > 100 µM (inactive) | – | – | – | – | – |
| CC12Nc3ccccc3C1=C(c1ccccc1)CC1C(=O)OC(=O)C12 (stereo not given) | > 100 µM (inactive) | > 100 µM (inactive) | > 100 µM (inactive) | > 100 µM (inactive) | 1.86 µM (inactive) | > 100 µM (inactive) | > 100 µM (inactive) | > 100 µM (inactive) | – | > 100 µM (inactive) | > 100 µM (inactive) | > 100 µM (inactive) | > 100 µM (inactive) | > 100 µM (inactive) | > 100 µM (inactive) | – | – | – | – | – |
| O=C1CCC(=O)N1Sc1ccccc1 | > 100 µM (inactive) | – | > 100 µM (inactive) | 42.4 µM (inactive) | 72.9 µM (inactive) | > 100 µM (inactive) | > 100 µM (inactive) | > 100 µM (inactive) | > 100 µM (inactive) | > 100 µM (inactive) | > 100 µM (inactive) | > 100 µM (inactive) | > 100 µM (inactive) | > 100 µM (inactive) | – | – | – | – | – | – |
| O=NN(CCCl)C(=O)N[C@H]1CCCC[C@@H]1Cl | 16.7 µM (inactive) | – | > 100 µM (inactive) | 19.6 µM (inactive) | 47 µM (inactive) | 19.6 µM (inactive) | 55.8 µM (inactive) | > 100 µM (inactive) | > 100 µM (inactive) | 61.5 µM (inactive) | > 100 µM (inactive) | 34.2 µM (inactive) | 71.6 µM (inactive) | > 100 µM (inactive) | > 100 µM (inactive) | – | – | – | – | – |
| c1ccc2c(c1)n1nnnc1c1nnnn21 | 85.1 µM (inactive) | > 100 µM (inactive) | > 100 µM (inactive) | > 100 µM (inactive) | 24.6 µM (inactive) | – | > 100 µM (inactive) | > 100 µM (inactive) | > 100 µM (inactive) | > 100 µM (inactive) | > 100 µM (inactive) | 83.4 µM (inactive) | > 100 µM (inactive) | 18.6 µM (inactive) | > 100 µM (inactive) | – | – | – | – | – |
| CCC(C)C1NC(=O)C(NC(=O)C(CC(C)C)N(C)C(=O)[C@@H]2CCCN2)C(C)OC(=O)[C@H](Cc2ccc(OC)cc2)N(C)C(=O)[C@@H]2CCCN2C(=O)[C@H](CC(C)C)NC(=O)C(C)C(=O)[C@H](C(C)C)OC(=O)CC1O (stereo not given in full) (H-P[ξNMeL][ξT][X10]LP[NMeY](Me); ester 3-C) | 0.000267 µM (active) | < 0.01 µM (active) | 0.000721 µM (active) | 0.000493 µM (active) | 0.000682 µM (active) | 0.00389 µM (active) | 0.000325 µM (active) | < 0.01 µM (active) | 0.00411 µM (active) | 0.000533 µM (active) | 0.000288 µM (active) | – | 0.000258 µM (active) | 0.00121 µM (active) | 0.000317 µM (active) | < 0.01 µM (active) | 0.00227 µM (active) | 0.00042 µM (active) | 0.0521 µM (active) | 0.000346 µM (active) |

Source: ChEMBL document CHEMBL1201862, “PubChem BioAssay data set” (2004)
